From patent US8193350B2, “Fluorescent compound and labeling agent comprising the same” (Keio University, priority 2006, dated 2012)
Values joined by “and” are separate entries in the source; they are usually repeats but may differ in a detail not shown here. Equal values may be shown once. Read-outs that look alike come from different tables or passages of the source. Marks after values point to notes of the source that are not given here.

Key:
[1] = Optical properties: absorption and fluorescence emission spectra; format: physicochemical
[2] = cited from earlier work
[3] = Light fastness test: change of absorbance with time under the light of daily life; format: physicochemical; conditions: acetonitrile
Experimental: An experiment testing the light fastness of fluorescent compound 8 and Cy7 (trade name, 1-[3-(4-monomethoxytrityloxy)propyl]-1′-[3-[(2-cyanoethyl)-(N,N-diisopropyl)phosphoramidityl]propyl]-3,3,3′,3′-tetramethylindotricarbocyanine chloride) was carried out.
Fluorescent compound 8 and Cy7 (trade name) were respectively dissolved in acetonitrile to a concentration attaining an absorbance of 0.1. The solutions were left to stand under the same conditions (more specifically, under the light of daily life without light shading, and the absorbance was measured every day (or every other day). The change with time of the measured absorbance was graphed taking the relative absorbance (taking the absorbance before leaving to stand as 100%) along the ordinate and taking the days along the abscissa.

[4] = CHCl3, reference N,N′-bis(1-hexylheptyl)-perylene dye (Φ=1.00 in CH2Cl2)
[5] = CHCl3, reference 3,3′-diethyl-dithiazylcarbocyanine, excitation 650 nm, containing error of 10%
[6] = MeOH, reference 3,3′-diethyl-dithiazylcarbocyanine, excitation 650 nm, containing error of 10%

| Compound | fwhm (full width at half maximum height) ([1]; MeOH) [nm] | λabs (maximum absorption wavelength) ([1]; MeOH) [nm] | λflu (maximum fluorescence wavelength) ([1]; MeOH) [nm] | fwhm (full width at half maximum height) ([1]; CHCl3) [nm] | λabs (maximum absorption wavelength) ([1]; CHCl3) | λflu (maximum fluorescence wavelength) ([1]; CHCl3) [nm] | shift of maximum absorption wavelength to longer wavelength compared with boron dipyrromethene (R1=R3=R5=R7=Me) [1] | shift of maximum absorption wavelength to longer wavelength compared with fluorescent compound 2 [1] | other results |
| --- | --- | --- | --- | --- | --- | --- | --- | --- | --- |
| 1-[3-(4-monomethoxytrityloxy)propyl]-1′-[3-[(2-cyanoethyl)-(N,N-diisopropyl)phosphoramidityl]propyl]-3,3,3′,3′-tetramethylindodicarbocyanine chloride [Cy5, reference compound] | 29 | 648 | 670 |  |  |  |  |  | ε (molar extinction coefficient) ([1]; MeOH): 250,000 M^−1cm^−1; Φ (fluorescence quantum yield) ([2]; the value in PBS obtained from Amersham Biosciences): 0.27^a |
| CCN1C(=CC=Cc2sc3ccccc3[n+]2CC)Sc2ccccc21 [3,3′-diethyl-dithiazylcarbocyanine] |  |  |  |  |  |  |  |  | Φ of reference dye ([2]; in MeOH): 0.33 |
| COc1ccc(C(OCCC[N+]2=C(C=CC=CC=CC=C3N(CCCOP(OCCC#N)N(C(C)C)C(C)C)c4ccccc4C3(C)C)C(C)(C)c3ccccc32)(c2ccccc2)c2ccccc2)cc1.[Cl-] (centres unmarked) [Cy7, 1-[3-(4-monomethoxytrityloxy)propyl]-1′-[3-[(2-cyanoethyl)-(N,N-diisopropyl)phosphoramidityl]propyl]-3,3,3′,3′-tetramethylindotricarbocyanine chloride] |  |  |  |  |  |  |  |  | light fastness (in words) ([3]; light of daily life, 1 week): very poor; relative absorbance retained (absorbance before leaving to stand as 100%) ([3]; under the light of daily life without light shading, after 1 week): ≤ 10% |
| CCCCC(CCCC)Oc1cc(C)c(C2=C3C=c4sc(C)cc4=[N+]3[B-](F)(F)n3c2cc2sc(C)cc23)c(C)c1 [Fluorescent Compound 3] |  |  |  | 20 | 586 nm | 596 |  |  | ε (molar extinction coefficient) ([1]; CHCl3): 170,000 M^−1cm^−1; Φ (fluorescence quantum yield) [1, 4]: 0.39 |
| CCCCC(CCCC)Oc1cc(C)c(C2=C3C=c4oc(-c5ccc(OC)cc5)cc4=[N+]3[B-](F)(F)n3c2cc2oc(-c4ccc(OC)cc4)cc23)c(C)c1 [Fluorescent Compound 5] | 29 | 664 | 679 | 28 | 673 nm | 685 | about 170 nm | about 90 nm | ε (molar extinction coefficient) ([1]; CHCl3): 190,000 M^−1cm^−1; Φ (fluorescence quantum yield) [1, 4]: 0.68; ε (molar extinction coefficient) ([1]; MeOH): 200,000 M^−1cm^−1; Φ (fluorescence quantum yield) ([1]; MeOH, reference N,N′-bis(1-hexylheptyl)-perylene dye (Φ=1.00 in CH2Cl2)): 0.63; fwhm (full width at half maximum height) ([1]; THF): 27 nm; ε (molar extinction coefficient) ([1]; THF): 190,000 M^−1cm^−1; λabs (maximum absorption wavelength) ([1]; THF): 669 nm; λflu (maximum fluorescence wavelength) ([1]; THF): 680 nm; Φ (fluorescence quantum yield) ([1]; THF, reference N,N′-bis(1-hexylheptyl)-perylene dye (Φ=1.00 in CH2Cl2)): 0.67; fwhm, summary in text of the values in Table 1 ([1]; all solvents of Table 1): about 30 nm |
| COc1ccc(-c2cc3c(o2)=CC2=Cc4cc5oc(-c6ccc(OC)cc6)cc5n4[B-](F)(F)[N+]=32)cc1 [Fluorescent Compound 6] | 26 | 659 | 672 | 24 | 683 nm and 673 nm | 683 | about 170 nm | about 90 nm | ε (molar extinction coefficient) ([1]; CHCl3, containing error of 10% (Table 4)): 240,000 M^−1cm^−1; Φ (fluorescence quantum yield) [1, 5]: 0.69; Φ (fluorescence quantum yield) [1, 6]: 0.58; fwhm (full width at half maximum height) ([1]; THF): 24 nm; λabs (maximum absorption wavelength) ([1]; THF): 665 nm; λflu (maximum fluorescence wavelength) ([1]; THF): 674 nm; Φ (fluorescence quantum yield) ([1]; THF, reference 3,3′-diethyl-dithiazylcarbocyanine, excitation 650 nm, containing error of 10%): 0.63 |
| COc1ccc(OC)c(-c2cc3c(o2)=CC2=Cc4cc5oc(-c6cc(OC)ccc6OC)cc5n4[B-](F)(F)[N+]=32)c1 [Fluorescent Compound 7] | 28 | 662 | 674 | 24 | 688 nm and 678 nm | 688 | about 170 nm | about 90 nm | Φ (fluorescence quantum yield) [1, 5]: 0.51; Φ (fluorescence quantum yield) [1, 6]: 0.54 |
